In ChEMBL document CHEMBL1201862, “PubChem BioAssay data set” (2004):
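Interpolation was linear, between the two tested concentrations surrounding the appropriate level; five concentrations were tested over 48 hours in 96-well plates. At the GI50, growth is halved.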 The source made the active and inactive calls. No stated cut-off is given here; in the data, active = GI50 up to about 1.1 µM and inactive = higher.

Assays:
Assay in all cases: growth of human tumour cells (NCI), 48 h
[1] = test system: EKVX
[2] = test system: SNB-19
[3] = test system: TK-10
[4] = test system: A549
[5] = test system: HCT-116
[6] = test system: RXF 393
[7] = test system: Malme-3M
[8] = test system: U-251
[9] = test system: SW-620
[10] = test system: OVCAR-8
[11] = test system: SF-268
[12] = test system: NCI-H460
[13] = test system: OVCAR-5
[14] = test system: SN12C
[15] = test system: UACC-257
[16] = test system: SK-MEL-5
[17] = test system: KM12
[18] = test system: IGROV-1
[19] = test system: HOP-62
[20] = test system: NCI/ADR-RES

Measured: GI50

O=C1C(=C2CCCC2)CCC1CN1CCCCC1 (stereo unspecified)
inactive: [1] 18.8 µM | [2] > 100 µM | [3] 14.1 µM | [4] > 100 µM | [5] 18.6 µM | [6] 16.4 µM | [7] 16.3 µM | [8] > 100 µM | [9] 16.4 µM | [10] 21.5 µM | [11] 19.5 µM | [12] > 10 µM | [13] 19.8 µM | [14] 16.8 µM | [15] 19.4 µM | [16] 18.2 µM | [17] 18.6 µM | [18] 18.4 µM

CC1=C(C(=O)NCc2ccccc2)C(c2ccco2)C(C(=O)NCc2ccccc2)=C(C)N1
inactive: [1] > 100 µM | [2] > 100 µM | [3] 57.4 µM | [4] > 100 µM | [5] 71.4 µM | [6] 66.8 µM | [7] > 100 µM | [8] > 100 µM | [9] 50.9 µM | [10] 78.5 µM | [11] 80.4 µM | [12] > 100 µM | [13] > 100 µM | [19] 65.3 µM | [14] 91.6 µM | [15] > 100 µM | [16] > 100 µM | [17] 33.8 µM | [18] > 100 µM

CN1C2CCC1/C(=C/c1cccc3c1OCO3)C(=O)/C2=C\c1cccc2c1OCO2
inactive: [1] > 100 µM | [3] 21.3 µM | [5] > 100 µM | [6] 11.3 µM | [7] > 100 µM | [8] 24.5 µM | [9] > 100 µM | [10] > 100 µM | [11] 47.6 µM | [12] > 100 µM | [13] > 100 µM | [19] 12.3 µM | [14] > 100 µM | [15] > 100 µM | [16] 37.9 µM | [17] > 100 µM | [18] 30.1 µM

O=C(CCc1ccccc1)CC1OC(=O)C(Cl)=C1Cl (stereo unspecified)
inactive: [1] 38.9 µM | [2] 20.9 µM | [3] 33.4 µM | [4] 43.4 µM | [5] 14.8 µM | [6] 29.5 µM | [7] 18.2 µM | [8] 16.4 µM | [9] 12.1 µM | [10] 20 µM | [11] 27.5 µM | [12] 33.5 µM | [13] 20 µM | [19] 26.2 µM | [14] 18.5 µM | [15] 21.3 µM | [16] 20.8 µM | [17] 17.5 µM | [18] 22.2 µM

O=C(CC1Sc2ccccc2NC1=O)Nc1ccc(Cl)cc1 (stereo unspecified)
inactive: [1] > 100 µM | [2] > 100 µM | [3] > 100 µM | [4] 91.8 µM | [5] 42.9 µM | [6] 31.1 µM | [7] 46.2 µM | [8] > 100 µM | [9] > 100 µM | [10] 37.9 µM | [11] 38.5 µM | [12] > 100 µM | [13] > 100 µM | [19] > 100 µM | [14] > 100 µM | [15] > 100 µM | [16] > 100 µM | [17] > 100 µM | [18] 86.3 µM

CCOC(=O)C1S/C(=N\c2ccc(Cl)cc2Cl)N=C1C (stereo unspecified)
inactive: [1] > 100 µM | [2] 47.5 µM | [3] > 100 µM | [4] 76.4 µM | [5] 65.6 µM | [6] 27.5 µM | [7] 76.7 µM | [8] 58.1 µM | [9] > 100 µM | [10] 74.6 µM | [11] > 100 µM | [12] 86.5 µM | [13] > 100 µM | [19] 51.9 µM | [14] > 100 µM | [15] 88.3 µM | [16] 48.6 µM | [17] > 100 µM | [18] > 100 µM

Cc1cc(N(CCC#N)CCC#N)ccc1/C=C(\NC(=O)/C=C/c1ccccc1)C(=O)Nc1ccccc1Cl
inactive: [1] > 100 µM | [2] > 100 µM | [4] > 100 µM | [5] > 100 µM | [6] > 100 µM | [7] > 100 µM | [8] 59.6 µM | [9] > 100 µM | [10] > 100 µM | [11] > 100 µM | [12] > 100 µM | [13] > 100 µM | [14] > 100 µM | [15] > 100 µM | [16] > 100 µM | [17] > 100 µM | [18] > 100 µM

Clc1ccccc1C(n1ncc2ccccc21)n1ncc2ccccc21
inactive: [2] 57.5 µM | [3] 99.8 µM | [5] 25.6 µM | [6] 28.3 µM | [7] 33.9 µM | [8] 35.8 µM | [9] 29.7 µM | [10] > 100 µM | [11] 99.3 µM | [12] 35.8 µM | [13] 37.7 µM | [19] > 100 µM | [14] 65.2 µM | [15] 40.8 µM | [16] 30.4 µM | [17] 25.7 µM | [18] > 10 µM

O=C(NCCCl)O/N=C/c1cccnc1
inactive: [20] > 100 µM | [1] > 100 µM | [2] > 100 µM | [4] > 100 µM | [5] > 100 µM | [8] > 100 µM | [9] > 100 µM | [10] > 100 µM | [11] > 100 µM | [12] > 100 µM | [13] > 100 µM | [19] > 100 µM | [14] > 100 µM | [15] > 100 µM | [16] > 100 µM | [17] > 100 µM | [18] > 100 µM

N#CC1C(=O)C(=O)N(c2ccccc2)C1=O (stereo unspecified)
inactive: [1] > 100 µM | [2] > 100 µM | [3] > 100 µM | [5] > 100 µM | [6] > 100 µM | [7] > 100 µM | [8] > 100 µM | [9] > 100 µM | [10] > 100 µM | [11] > 100 µM | [12] > 100 µM | [13] > 100 µM | [19] > 100 µM | [14] > 100 µM | [15] > 100 µM | [16] > 100 µM | [17] > 100 µM | [18] > 100 µM

COc1cccc(-c2nc(-c3cnccn3)n(Cc3ccccc3)n2)c1
inactive: [1] > 100 µM | [2] 90.4 µM | [3] > 100 µM | [4] > 100 µM | [5] > 100 µM | [6] 25.4 µM | [8] > 100 µM | [9] > 100 µM | [10] > 100 µM | [11] > 100 µM | [12] > 100 µM | [13] > 100 µM | [19] 44.4 µM | [14] > 100 µM | [15] > 100 µM | [16] 89.3 µM | [17] > 100 µM | [18] 88.7 µM

C=C[C@@](C)(/C=C/c1ccc(O)cc1)CCC=C(C)C [BAKUCHIOL]
inactive: [20] 16.2 µM | [2] 19.1 µM | [3] 17.1 µM | [4] 17.8 µM | [5] 18.1 µM | [8] 16.9 µM | [9] 17 µM | [10] 16.9 µM | [12] 15.6 µM | [13] 19.2 µM | [19] 19.1 µM | [14] 18.5 µM | [15] 17.7 µM | [16] 16 µM | [18] 15.8 µM

NC1C(O)C(O)C(CO)OC1n1cc(F)c(=O)[nH]c1=O (stereo unspecified)
inactive: [2] > 100 µM | [3] > 100 µM | [4] > 100 µM | [5] > 100 µM | [6] > 100 µM | [7] > 100 µM | [8] > 100 µM | [9] > 100 µM | [11] > 100 µM | [12] > 100 µM | [13] > 100 µM | [14] > 100 µM | [15] > 100 µM | [16] > 100 µM | [17] > 100 µM

CCOC(=O)CSC(=O)NCCCl
inactive: [1] > 100 µM | [2] > 100 µM | [3] > 100 µM | [4] > 100 µM | [5] > 100 µM | [6] > 100 µM | [7] > 100 µM | [8] > 100 µM | [9] > 100 µM | [10] > 100 µM | [11] > 100 µM | [12] > 100 µM | [13] > 100 µM | [19] > 100 µM | [14] > 100 µM | [15] > 100 µM | [17] > 100 µM | [18] > 100 µM

O=C1Nc2ccccc2C(=O)/C1=C/NC(=S)NCCc1ccccc1
inactive: [20] > 100 µM | [1] > 100 µM | [2] > 100 µM | [3] 22.1 µM | [4] > 100 µM | [5] > 100 µM | [8] > 100 µM | [9] > 100 µM | [10] > 100 µM | [12] > 100 µM | [13] > 100 µM | [19] > 100 µM | [14] > 100 µM | [15] > 100 µM | [16] > 100 µM | [17] 55.3 µM | [18] > 100 µM

COC(=O)c1sc(=O)n(-c2ccccc2)c1SCc1ccccc1
inactive: [1] > 100 µM | [2] > 100 µM | [3] > 100 µM | [4] > 100 µM | [5] > 100 µM | [6] > 100 µM | [7] > 100 µM | [8] > 100 µM | [9] > 100 µM | [10] > 100 µM | [12] > 100 µM | [13] > 100 µM | [19] > 100 µM | [14] > 100 µM | [15] > 100 µM | [16] > 100 µM | [17] > 100 µM | [18] > 100 µM
